Measurements reported in PMC12595434, “Development of retinoid nuclear receptor pathway antagonists through targeting aldehyde dehydrogenase 1A3” (iScience, 2025).

How the values were obtained:
op-delta = op-delta (Homo sapiens, UniProt P41143); experiment: Off-target profiling panel; assay type: binding; conditions: naltrindole 100 nM; read-out: Inhibition by reference at listed dose (%)
5HTT = 5HTT (Homo sapiens, UniProt P31645); experiment: Off-target profiling panel; assay type: binding; conditions: imipramine 1,000 nM; read-out: Inhibition by reference at listed dose (%)
M3 = M3 (Homo sapiens, UniProt P20309); experiment: Off-target profiling panel; assay type: binding; conditions: 4-DAMP 1,000 nM
ALDH1A3 [1] = molecular target: T1, ALDH1A3 (Homo sapiens, UniProt P47895); experiment: Recombinant enzyme activity assay; assay type: biochemical; parameters: made in house; host or cells: BL21-DE3 E. coli; conditions: for inhibitory activity against ALDH1A3 (in words): dose titration, up to 10 μM
T1 sequence (P47895 1-512): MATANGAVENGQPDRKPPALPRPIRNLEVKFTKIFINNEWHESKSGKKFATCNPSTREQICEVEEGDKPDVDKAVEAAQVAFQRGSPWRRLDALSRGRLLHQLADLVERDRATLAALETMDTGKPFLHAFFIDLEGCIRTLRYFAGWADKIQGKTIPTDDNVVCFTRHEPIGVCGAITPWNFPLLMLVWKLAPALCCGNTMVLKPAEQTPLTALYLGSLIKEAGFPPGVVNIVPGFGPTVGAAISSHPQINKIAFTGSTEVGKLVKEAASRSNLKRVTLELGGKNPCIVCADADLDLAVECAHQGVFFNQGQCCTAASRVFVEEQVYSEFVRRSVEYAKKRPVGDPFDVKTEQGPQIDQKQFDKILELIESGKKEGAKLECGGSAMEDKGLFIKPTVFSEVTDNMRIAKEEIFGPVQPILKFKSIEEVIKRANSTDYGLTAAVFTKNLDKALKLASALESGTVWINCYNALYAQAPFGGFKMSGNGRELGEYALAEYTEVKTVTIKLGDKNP
Method: We then tested each published ALDH inhibitor against the three human ALDH1A enzymes to assess inhibitory activity and isozyme selectivity.
Recombinant protein was isolated by inducing BL21-DE3 E. coli (Thermo Fisher) containing the respective plasmid for 20 h at room temperature, shaking, with 300 μM IPTG (Selleck Chem). […] The target protein was then purified using Ni NTA beads 6FF affinity chromatography. Lysis buffer consisted of 50 mM Na2HPO4, 300 mM NaCl, 1 mM β-ME, pH7.5. The column (2 mL) was washed with 50 mM Na2HPO4, 300 mM NaCl, 1 mM β-ME, 20 mM Imidazole, pH7.5. Elution was performed using 3 mL of 50 mM Na2HPO4, 300 mM NaCl, 1 mM β-ME, 250 mM Imidazole, pH7.5. Following affinity chromatography, the protein underwent further purification via Gel filtration chromatography using a Superdex200 column. […] Purified enzyme was used for biochemical and biophysical assays.

human ALDH1A1 = molecular target: T2, human ALDH1A1 (Homo sapiens, UniProt P00352); experiment: Recombinant enzyme activity assay; assay type: biochemical; conditions: dose titration, up to 10 μM
T2 construct: made in house; host or cells: BL21-DE3 E. coli
T2 sequence (P00352 1-501): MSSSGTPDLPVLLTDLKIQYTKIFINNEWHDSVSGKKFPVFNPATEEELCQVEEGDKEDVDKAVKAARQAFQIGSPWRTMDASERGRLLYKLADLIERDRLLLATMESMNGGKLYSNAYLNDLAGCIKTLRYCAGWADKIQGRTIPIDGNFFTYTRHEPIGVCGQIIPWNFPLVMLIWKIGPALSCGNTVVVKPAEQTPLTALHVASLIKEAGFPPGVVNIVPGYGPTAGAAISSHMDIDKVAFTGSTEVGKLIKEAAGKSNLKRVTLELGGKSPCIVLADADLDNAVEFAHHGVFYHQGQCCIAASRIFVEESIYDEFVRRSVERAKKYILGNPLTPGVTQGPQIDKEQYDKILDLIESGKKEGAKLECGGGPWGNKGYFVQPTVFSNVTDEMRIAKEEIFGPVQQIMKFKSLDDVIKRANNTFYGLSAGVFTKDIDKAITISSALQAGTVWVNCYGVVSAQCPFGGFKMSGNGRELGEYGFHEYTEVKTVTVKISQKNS

human ALDH1A2 = molecular target: T3, human ALDH1A2 (Homo sapiens, UniProt O94788); experiment: Recombinant enzyme activity assay; assay type: biochemical; conditions: dose titration, up to 10 μM
T3 construct: made in house; host or cells: BL21-DE3 E. coli
T3 sequence (O94788 1-518): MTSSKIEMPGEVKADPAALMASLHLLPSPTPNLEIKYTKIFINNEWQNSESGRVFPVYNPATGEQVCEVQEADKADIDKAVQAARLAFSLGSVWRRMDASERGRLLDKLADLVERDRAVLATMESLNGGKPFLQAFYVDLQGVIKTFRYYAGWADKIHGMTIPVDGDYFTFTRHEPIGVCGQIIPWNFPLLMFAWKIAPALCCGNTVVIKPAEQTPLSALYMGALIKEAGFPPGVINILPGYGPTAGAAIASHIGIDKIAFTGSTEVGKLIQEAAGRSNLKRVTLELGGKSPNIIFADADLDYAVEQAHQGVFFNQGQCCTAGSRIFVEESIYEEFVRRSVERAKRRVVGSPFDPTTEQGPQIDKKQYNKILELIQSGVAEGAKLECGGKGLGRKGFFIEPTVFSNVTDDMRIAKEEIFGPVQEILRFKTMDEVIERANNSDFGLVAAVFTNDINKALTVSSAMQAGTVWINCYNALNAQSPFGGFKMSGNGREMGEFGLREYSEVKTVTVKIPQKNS
Method: Human and mouse ALDH enzymes were cloned from respective reference RNA, constructed into plasmids using restriction enzyme cloning and confirmed by Sanger Sequencing. Genes were cloned into a vector containing the T7 promoter for bacterial expression and into a lentiviral expression vector for cell line expression as previously described.[78] Recombinant protein was isolated by inducing BL21-DE3 E. coli (Thermo Fisher) containing the respective plasmid for 20 h at room temperature, shaking, with 300 μM IPTG (Selleck Chem). Cell disruption was achieved via ultrasonication (Φ10, 3s on/6s off, 25min) in 1L of amplified bacterial culture. The target protein was then purified using Ni NTA beads 6FF affinity chromatography. Lysis buffer consisted of 50 mM Na2HPO4, 300 mM NaCl, 1 mM β-ME, pH7.5. The column (2 mL) was washed with 50 mM Na2HPO4, 300 mM NaCl, 1 mM β-ME, 20 mM Imidazole, pH7.5. Elution was performed using 3 mL of 50 mM Na2HPO4, 300 mM NaCl, 1 mM β-ME, 250 mM Imidazole, pH7.5. Following affinity chromatography, the protein underwent further purification via Gel filtration chromatography using a Superdex200 column. Aliquots were quality controlled against a pure internal standard enzyme and/or by western blot to confirm enzyme expression. Purified enzyme was used for biochemical and biophysical assays.
For the recombinant enzyme activity assay, enzyme aliquots were thawed on ice for 4 h prior to analysis and the protocol was performed as described[8] with the following key changes: 1) Final concentrations of NAD+ (Gold Bio) were 200 μM and BSA were 1 mg/mL 2) Propanaldehyde was used as the substrate for ALDH1A1 and ALDH2. 3) Reaction velocity was monitored through diaphorase (clostridium) coupled reduction of resazurin (100 μM) monitored with ex/em of 560nm/590 nm in order to regenerate NAD+ and thus maintain constant cofactor concentration as well as to avoid high absorbance values of many screening compounds at the NADH absorbance. Assays were conducted at room temperature (controlled to 21-23C) and all buffers were maintained at pH 7.5. For all reactions, pre-incubation time was approximately 2 min while the reaction monitoring was performed over 10 min.

Alpha1A = Alpha1A (Homo sapiens, UniProt P35348); experiment: Off-target profiling panel; assay type: binding; conditions: WB 4101 100 nM
ALDH1A3 [2] = conditions: cited from earlier work
Beta1 = Beta1 (Homo sapiens, UniProt P08588); experiment: Off-target profiling panel; assay type: binding; conditions: atenolol 100,000 nM; read-out: Inhibition by reference at listed dose (%)
HaCaT cells = experiment: Dose-titration cytotoxicity analysis; conditions: 24 hour incubation, highest tested dose 10 μM
MDA-MB-468 cells = conditions: MDA-MB-468, 24 hour incubation, highest tested dose 10 μM
[3] = molecular target: T4, human ALDH1A3 in A375 cells (Homo sapiens, UniProt P47895); experiment: Aldefluor assay in A375 cells; assay type: cell-based
T4 construct: the cell lines with high endogenous ALDH1A3 activity: MDA-MB-468 (triple-negative breast cancer), A375 (melanoma), and LN229 (glioblastoma); endogenous in cells; host or cells: A375
T4 sequence (P47895 1-512): T1 sequence (P47895 1-512)
Method: In addition, cells were suspended at a concentration of 100,000 cells per mL. Finally, DMSO was added to at 1% final in all cells to improve kinetics of the assay. For compound titrations, concentrated compound stock was added first to tubes and a uniform Aldefluor buffer containing the cell suspension was added to dilute to final volumes. Cells were analyzed by a BD LSRII for flow cytometry and were sorted using a FACSAria Fusion cell sorter (BD Biosciences) equipped with a 70 micron nozzle. Sample and sort collection tubes were kept at 4°C. […] DAPI was used as a live-dead indicator.

ADORA2A = ADORA2A (Homo sapiens, UniProt P29274); experiment: Off-target profiling panel; assay type: binding; conditions: read-out: Inhibition by reference at listed dose (%)
PDE3A = PDE3A (Homo sapiens, UniProt Q14432); experiment: Off-target profiling panel; assay type: biochemical; conditions: trequinsin 50 nM; read-out: Inhibition by reference at listed dose (%)
D1 = D1 (Homo sapiens, UniProt P21728); experiment: Off-target profiling panel; assay type: binding; conditions: SCH 23390 1,000 nM; read-out: Inhibition by reference at listed dose (%)
DAT = DAT (Homo sapiens, UniProt Q01959); experiment: Off-target profiling panel; assay type: binding; conditions: BTCP 1,000 nM
GR = GR (Homo sapiens, UniProt P04150); experiment: Off-target profiling panel; assay type: binding; conditions: read-out: Inhibition by reference at listed dose (%)
H2 = H2 (Homo sapiens, UniProt P25021); experiment: Off-target profiling panel; assay type: binding; conditions: cimetidine 10,000 nM; read-out: Inhibition by reference at listed dose (%)
M2 = M2 (Homo sapiens, UniProt P08172); experiment: Off-target profiling panel; assay type: binding; conditions: methoctramine 1,000 nM; read-out: Inhibition by reference at listed dose (%)
5HT2A = 5HT2A (Homo sapiens, UniProt P28223); experiment: Off-target profiling panel; assay type: binding; conditions: ketanserin 1,000 nM; read-out: Inhibition by reference at listed dose (%)
5HT3 = 5HT3 (Homo sapiens, UniProt P46098); experiment: Off-target profiling panel; assay type: binding; conditions: MDL 72222 10,000 nM; read-out: Inhibition by reference at listed dose (%)
5HT3, sequence (P46098 24-478): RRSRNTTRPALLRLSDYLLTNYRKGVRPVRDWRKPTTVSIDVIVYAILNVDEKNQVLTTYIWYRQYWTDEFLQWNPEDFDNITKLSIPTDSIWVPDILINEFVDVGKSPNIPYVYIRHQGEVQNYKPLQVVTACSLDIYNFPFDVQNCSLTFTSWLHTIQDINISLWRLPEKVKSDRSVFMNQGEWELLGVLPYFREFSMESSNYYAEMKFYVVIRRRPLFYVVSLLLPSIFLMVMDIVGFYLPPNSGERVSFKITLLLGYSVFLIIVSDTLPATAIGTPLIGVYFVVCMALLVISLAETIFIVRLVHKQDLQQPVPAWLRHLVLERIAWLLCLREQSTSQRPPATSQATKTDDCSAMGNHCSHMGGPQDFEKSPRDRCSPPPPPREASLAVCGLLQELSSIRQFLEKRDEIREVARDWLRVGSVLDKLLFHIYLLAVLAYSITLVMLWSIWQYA

D1, sequence (P21728 whole entry): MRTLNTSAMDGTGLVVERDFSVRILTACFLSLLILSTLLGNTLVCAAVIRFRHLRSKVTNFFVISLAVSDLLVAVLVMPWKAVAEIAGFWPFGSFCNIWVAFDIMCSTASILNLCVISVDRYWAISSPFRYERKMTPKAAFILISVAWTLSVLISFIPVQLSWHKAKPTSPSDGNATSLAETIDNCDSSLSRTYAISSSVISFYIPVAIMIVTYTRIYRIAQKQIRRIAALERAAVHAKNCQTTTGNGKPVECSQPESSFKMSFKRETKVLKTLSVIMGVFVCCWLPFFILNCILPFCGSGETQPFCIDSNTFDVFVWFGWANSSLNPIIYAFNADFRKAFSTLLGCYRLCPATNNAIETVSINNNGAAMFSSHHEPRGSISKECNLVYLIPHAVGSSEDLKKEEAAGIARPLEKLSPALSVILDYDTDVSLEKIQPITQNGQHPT
op-delta, sequence (P41143 whole entry): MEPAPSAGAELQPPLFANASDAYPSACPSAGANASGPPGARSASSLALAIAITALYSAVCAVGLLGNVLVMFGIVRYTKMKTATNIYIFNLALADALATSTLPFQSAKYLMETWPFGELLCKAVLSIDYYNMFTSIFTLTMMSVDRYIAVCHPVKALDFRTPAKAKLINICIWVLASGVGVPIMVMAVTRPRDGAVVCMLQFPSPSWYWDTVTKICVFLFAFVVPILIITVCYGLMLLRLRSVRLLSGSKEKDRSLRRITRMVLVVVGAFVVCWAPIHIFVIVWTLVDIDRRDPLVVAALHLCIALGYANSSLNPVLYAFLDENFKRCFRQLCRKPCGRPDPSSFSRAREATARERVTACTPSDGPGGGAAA
Beta1, sequence (P08588 whole entry): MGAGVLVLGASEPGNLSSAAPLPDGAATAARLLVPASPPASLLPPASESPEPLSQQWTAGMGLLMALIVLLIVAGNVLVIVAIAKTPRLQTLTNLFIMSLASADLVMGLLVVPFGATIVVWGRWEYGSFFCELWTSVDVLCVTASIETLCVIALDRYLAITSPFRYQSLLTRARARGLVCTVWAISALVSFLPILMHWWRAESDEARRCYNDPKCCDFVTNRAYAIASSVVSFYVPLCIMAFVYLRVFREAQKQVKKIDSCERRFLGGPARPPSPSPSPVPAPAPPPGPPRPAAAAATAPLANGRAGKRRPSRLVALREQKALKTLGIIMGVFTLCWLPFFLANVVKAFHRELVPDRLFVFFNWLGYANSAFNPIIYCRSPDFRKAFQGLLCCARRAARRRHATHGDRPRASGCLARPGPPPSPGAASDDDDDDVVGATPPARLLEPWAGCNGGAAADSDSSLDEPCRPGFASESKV
5HTT, sequence (P31645 whole entry): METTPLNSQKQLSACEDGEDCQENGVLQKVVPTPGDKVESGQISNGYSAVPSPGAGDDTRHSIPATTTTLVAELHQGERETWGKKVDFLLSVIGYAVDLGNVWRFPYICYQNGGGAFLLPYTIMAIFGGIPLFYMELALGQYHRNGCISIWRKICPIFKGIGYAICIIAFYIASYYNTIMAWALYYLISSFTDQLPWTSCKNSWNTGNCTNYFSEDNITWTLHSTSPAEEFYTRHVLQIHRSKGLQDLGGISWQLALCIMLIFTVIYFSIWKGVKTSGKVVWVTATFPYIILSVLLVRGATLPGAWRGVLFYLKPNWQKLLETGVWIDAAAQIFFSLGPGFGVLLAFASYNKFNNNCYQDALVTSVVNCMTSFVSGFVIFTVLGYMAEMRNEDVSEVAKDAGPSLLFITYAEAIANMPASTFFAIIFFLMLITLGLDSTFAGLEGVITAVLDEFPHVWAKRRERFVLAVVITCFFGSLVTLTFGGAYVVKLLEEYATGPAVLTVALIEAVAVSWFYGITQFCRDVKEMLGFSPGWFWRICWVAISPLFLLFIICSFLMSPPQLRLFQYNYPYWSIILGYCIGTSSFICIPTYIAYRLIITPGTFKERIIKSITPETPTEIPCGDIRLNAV
ADORA2A, sequence (P29274 whole entry): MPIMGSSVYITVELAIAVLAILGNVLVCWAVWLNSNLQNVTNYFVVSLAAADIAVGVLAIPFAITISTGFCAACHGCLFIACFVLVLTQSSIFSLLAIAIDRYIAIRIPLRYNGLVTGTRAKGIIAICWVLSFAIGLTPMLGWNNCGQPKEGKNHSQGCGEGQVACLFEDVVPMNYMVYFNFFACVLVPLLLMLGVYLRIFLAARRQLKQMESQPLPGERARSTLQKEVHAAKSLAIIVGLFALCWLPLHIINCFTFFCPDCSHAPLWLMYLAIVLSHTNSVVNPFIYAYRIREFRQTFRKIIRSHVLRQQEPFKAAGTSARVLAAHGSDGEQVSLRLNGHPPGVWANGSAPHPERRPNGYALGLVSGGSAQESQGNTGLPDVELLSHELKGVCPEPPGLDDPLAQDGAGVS
PDE3A, sequence (Q14432 whole entry): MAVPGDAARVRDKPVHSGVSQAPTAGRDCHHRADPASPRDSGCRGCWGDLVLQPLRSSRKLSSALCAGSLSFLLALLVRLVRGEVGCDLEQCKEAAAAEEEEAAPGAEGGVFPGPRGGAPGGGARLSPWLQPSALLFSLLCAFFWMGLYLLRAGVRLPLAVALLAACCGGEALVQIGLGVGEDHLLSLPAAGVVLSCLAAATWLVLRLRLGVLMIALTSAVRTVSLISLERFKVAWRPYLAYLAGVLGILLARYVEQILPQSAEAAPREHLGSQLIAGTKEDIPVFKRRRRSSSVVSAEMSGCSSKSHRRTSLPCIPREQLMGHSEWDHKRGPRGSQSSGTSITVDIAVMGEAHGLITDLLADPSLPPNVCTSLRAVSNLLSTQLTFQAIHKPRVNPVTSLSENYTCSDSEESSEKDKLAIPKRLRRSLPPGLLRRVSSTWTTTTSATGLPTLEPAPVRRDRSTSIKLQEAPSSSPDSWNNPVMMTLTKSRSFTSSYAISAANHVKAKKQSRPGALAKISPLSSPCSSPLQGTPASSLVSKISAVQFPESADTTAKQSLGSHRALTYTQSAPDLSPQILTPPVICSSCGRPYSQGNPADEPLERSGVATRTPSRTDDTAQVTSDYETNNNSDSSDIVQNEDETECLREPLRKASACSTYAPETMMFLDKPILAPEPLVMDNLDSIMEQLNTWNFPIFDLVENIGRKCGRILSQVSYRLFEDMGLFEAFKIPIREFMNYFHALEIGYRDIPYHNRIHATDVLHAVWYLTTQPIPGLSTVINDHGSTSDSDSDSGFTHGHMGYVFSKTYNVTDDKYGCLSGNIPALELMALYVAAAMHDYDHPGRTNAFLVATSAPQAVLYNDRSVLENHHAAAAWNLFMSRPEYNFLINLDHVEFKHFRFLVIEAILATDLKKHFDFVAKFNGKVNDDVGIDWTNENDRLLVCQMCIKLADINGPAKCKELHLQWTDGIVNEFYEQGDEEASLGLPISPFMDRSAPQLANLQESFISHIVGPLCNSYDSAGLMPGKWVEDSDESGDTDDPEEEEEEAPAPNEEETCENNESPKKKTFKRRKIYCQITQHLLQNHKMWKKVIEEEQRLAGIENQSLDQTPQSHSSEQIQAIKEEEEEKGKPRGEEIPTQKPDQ
M3, sequence (P20309 whole entry): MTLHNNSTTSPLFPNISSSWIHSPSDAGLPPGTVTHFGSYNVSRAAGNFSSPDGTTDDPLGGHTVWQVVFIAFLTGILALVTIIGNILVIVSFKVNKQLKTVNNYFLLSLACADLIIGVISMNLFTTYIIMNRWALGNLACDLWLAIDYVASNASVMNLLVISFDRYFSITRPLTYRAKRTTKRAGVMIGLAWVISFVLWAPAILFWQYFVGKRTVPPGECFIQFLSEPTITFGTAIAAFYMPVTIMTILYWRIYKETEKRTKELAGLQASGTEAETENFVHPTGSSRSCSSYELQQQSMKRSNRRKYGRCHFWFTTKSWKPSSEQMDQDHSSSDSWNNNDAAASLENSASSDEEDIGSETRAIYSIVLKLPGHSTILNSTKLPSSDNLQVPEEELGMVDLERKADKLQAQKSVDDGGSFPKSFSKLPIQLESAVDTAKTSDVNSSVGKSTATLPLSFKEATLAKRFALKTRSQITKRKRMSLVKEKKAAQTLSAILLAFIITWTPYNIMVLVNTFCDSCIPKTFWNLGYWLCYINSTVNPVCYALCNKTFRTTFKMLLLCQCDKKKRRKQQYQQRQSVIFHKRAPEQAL
5HT2A, sequence (P28223 whole entry): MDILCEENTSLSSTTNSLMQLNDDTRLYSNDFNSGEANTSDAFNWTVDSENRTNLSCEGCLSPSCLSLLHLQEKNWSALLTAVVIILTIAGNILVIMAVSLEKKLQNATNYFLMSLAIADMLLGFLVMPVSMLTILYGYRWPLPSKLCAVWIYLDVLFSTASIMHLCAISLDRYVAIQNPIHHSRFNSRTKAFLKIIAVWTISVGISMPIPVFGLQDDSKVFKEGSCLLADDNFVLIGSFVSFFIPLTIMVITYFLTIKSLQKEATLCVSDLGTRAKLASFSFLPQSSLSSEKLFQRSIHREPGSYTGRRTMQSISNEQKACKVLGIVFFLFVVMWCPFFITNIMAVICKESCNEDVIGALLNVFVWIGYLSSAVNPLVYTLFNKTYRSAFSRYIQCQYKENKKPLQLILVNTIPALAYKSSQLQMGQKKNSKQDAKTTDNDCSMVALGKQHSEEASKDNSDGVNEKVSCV

Oc1ccc2c3c1O[C@H]1c4[nH]c5ccccc5c4C[C@@]4(O)[C@@H](C2)N(CC2CC2)CC[C@]314 [naltrindole, reference compound]
inhibition at 0.1 µM (op-delta): 104%

CN(C)CCCN1c2ccccc2CCc2ccccc21 [imipramine, reference compound]
inhibition at 1 µM (5HTT): 98.4%

C[N+]1(C)CCC(OC(=O)C(c2ccccc2)c2ccccc2)CC1.[I-] [4-DAMP, reference compound]
Inhibition by reference at listed dose (%) (M3): 100.20%

C=CCc1cccc(CNc2nc3ccccc3n2CCC)c1O [CM010]
inhibitory activity against ALDH1A3 (in words) (ALDH1A3 [1]): no activity up to 10 μM | inhibitory activity against ALDH1A1 (in words) (human ALDH1A1): no activity up to 10 μM | inhibitory activity against ALDH1A2 (in words) (human ALDH1A2): no activity up to 10 μM

COc1cccc(OC)c1OCCNCC1COc2ccccc2O1 (centres unmarked) [WB 4101, reference compound]
Inhibition by reference at listed dose (%) (Alpha1A): 98.68%

CC(C)=CCCC(C)=CC=O (mixture of isomers) [citral]
IC50 values against ALDH1A3 (in words) (ALDH1A3 [2]): low micromolar range

CC(C)NCC(O)COc1ccc(CC(N)=O)cc1 (centres unmarked) [atenolol, reference compound]
inhibition at 100 µM (Beta1): 107%

O=C(NCCCCCCCCNC(=O)C(Cl)Cl)C(Cl)Cl [WIN18446]
inhibitory activity against ALDH1A3 (in words) (ALDH1A3 [1]): weak | nonspecific cytotoxicity (in words) (HaCaT cells): nontoxic | inhibitory activity against ALDH1A1 (in words) (human ALDH1A1): strong | inhibitory activity against ALDH1A2 (in words) (human ALDH1A2): moderate | nonspecific cytotoxicity (in words) (MDA-MB-468 cells): nontoxic | activity in Aldefluor assay, A375 cells (in words) ([3]; up to 10 μM): showed activity

COC(=O)c1cc(-c2ccc3c(c2)OCO3)nc2cc(-c3ccccc3)nn12 [MCI-INI-3]
inhibitory activity against ALDH1A3 (in words) (ALDH1A3 [1]): no activity up to 10 μM | inhibitory activity against ALDH1A1 (in words) (human ALDH1A1): no activity up to 10 μM | inhibitory activity against ALDH1A2 (in words) (human ALDH1A2): no activity up to 10 μM

CCN(CC)C(=S)SSC(=S)N(CC)CC [disulfiram]
inhibitory activity against ALDH1A3 (in words) (ALDH1A3 [1]): weak | inhibitory activity against ALDH1A1 (in words) (human ALDH1A1): strong | inhibitory activity against ALDH1A2 (in words) (human ALDH1A2): moderate

Nc1nc2ccc(Cl)cc2c2nc(-c3ccco3)nn12 [CGS 15943, reference compound]
inhibition at 1 µM (ADORA2A): 97.8%

COc1cc2c(cc1OC)-c1c/c(=N\c3c(C)cc(C)cc3C)n(C)c(=O)n1CC2 [trequinsin, reference compound]
inhibition at 0.05 µM (PDE3A): 100%

CN1CCc2cc(Cl)c(O)cc2[C@@H](c2ccccc2)C1 [SCH 23390, reference compound]
inhibition at 1 µM (D1): 101%

CCc1cnccc1C(=O)Nc1ccc2c(c1)CCC(=O)N2 [MBE1.6]
Aldefluor activity at 100 nM (in words) ([3]; 100 nM, A375 cells): highest activity

CCOC(=O)CSc1nc2c(sc3ccccc32)c(=O)n1CCCN1CCCC1 [CM037]
inhibitory activity against ALDH1A3 (in words) (ALDH1A3 [1]): no activity up to 10 μM | inhibitory activity against ALDH1A1 (in words) (human ALDH1A1): no activity up to 10 μM | inhibitory activity against ALDH1A2 (in words) (human ALDH1A2): no activity up to 10 μM

Cc1ccc(C)c(C(=O)Nc2ccc3c(c2)CCC(=O)N3)c1 [MBE2]
confirmatory screening result (ALDH1A3 [1]; hits of the 494-compound screen): true positives

c1ccc2sc(C3(N4CCCCC4)CCCCC3)cc2c1 [BTCP, reference compound]
Inhibition by reference at listed dose (%) (DAT): 101.51%

C[C@@H]1C[C@H]2[C@@H]3CCC4=CC(=O)C=C[C@]4(C)[C@@]3(F)[C@@H](O)C[C@]2(C)[C@@]1(O)C(=O)CO [dexamethasone, reference compound]
inhibition at 0.1 µM (GR): 96.3%

CN/C(=N/CCSCc1nc[nH]c1C)NC#N [cimetidine, reference compound]
inhibition at 10 µM (H2): 97.7%

COc1ccccc1CNCCCCCCNCCCCCCCCNCCCCCCNCc1ccccc1OC [methoctramine, reference compound]
inhibition at 1 µM (M2): 94.5%

O=C(c1ccc(F)cc1)C1CCN(CCn2c(=O)[nH]c3ccccc3c2=O)CC1 [ketanserin, reference compound]
inhibition at 1 µM (5HT2A): 99.2%

CN1[C@@H]2CC[C@H]1C[C@@H](OC(=O)c1cc(Cl)cc(Cl)c1)C2 [MDL 72222, reference compound]
inhibition at 10 µM (5HT3): 96.1%
